Laboratory results published in ChEMBL document CHEMBL1158320, “Antiandrogenic natural Diels--Alder-type adducts from Brosimum rubescens” (J Nat Prod, 1997).
Activity calls are given as the source filed them. The rule behind the calls is not given here.

Tests used:
Details in all cases: Prostate gland
Rattus norvegicus [1] = species on record: Rattus norvegicus; experiment: Inhibition of 5alpha reductase in Wistar rat ventral prostate at 50 ug/mL by radiochromatography; assay type: tissue-based
Rattus norvegicus [2] = species on record: Rattus norvegicus; experiment: Inhibition of 5alpha reductase in Wistar rat ventral prostate at 100 ug/mL by radiochromatography; assay type: tissue-based
Rattus norvegicus [3] = species on record: Rattus norvegicus; experiment: Inhibition of 5alpha reductase in Wistar rat ventral prostate at 200 ug/mL by radiochromatography; assay type: tissue-based
[4] = molecular target: T1, Androgen receptor (Rattus norvegicus) (UniProt P15207); experiment: Displacement of [3H]dihydrotestosterone from androgen receptor in Wistar rat ventral prostate at 50 ug/mL by liquid scintillation counting; assay type: tissue-based
T1 sequence (whole entry): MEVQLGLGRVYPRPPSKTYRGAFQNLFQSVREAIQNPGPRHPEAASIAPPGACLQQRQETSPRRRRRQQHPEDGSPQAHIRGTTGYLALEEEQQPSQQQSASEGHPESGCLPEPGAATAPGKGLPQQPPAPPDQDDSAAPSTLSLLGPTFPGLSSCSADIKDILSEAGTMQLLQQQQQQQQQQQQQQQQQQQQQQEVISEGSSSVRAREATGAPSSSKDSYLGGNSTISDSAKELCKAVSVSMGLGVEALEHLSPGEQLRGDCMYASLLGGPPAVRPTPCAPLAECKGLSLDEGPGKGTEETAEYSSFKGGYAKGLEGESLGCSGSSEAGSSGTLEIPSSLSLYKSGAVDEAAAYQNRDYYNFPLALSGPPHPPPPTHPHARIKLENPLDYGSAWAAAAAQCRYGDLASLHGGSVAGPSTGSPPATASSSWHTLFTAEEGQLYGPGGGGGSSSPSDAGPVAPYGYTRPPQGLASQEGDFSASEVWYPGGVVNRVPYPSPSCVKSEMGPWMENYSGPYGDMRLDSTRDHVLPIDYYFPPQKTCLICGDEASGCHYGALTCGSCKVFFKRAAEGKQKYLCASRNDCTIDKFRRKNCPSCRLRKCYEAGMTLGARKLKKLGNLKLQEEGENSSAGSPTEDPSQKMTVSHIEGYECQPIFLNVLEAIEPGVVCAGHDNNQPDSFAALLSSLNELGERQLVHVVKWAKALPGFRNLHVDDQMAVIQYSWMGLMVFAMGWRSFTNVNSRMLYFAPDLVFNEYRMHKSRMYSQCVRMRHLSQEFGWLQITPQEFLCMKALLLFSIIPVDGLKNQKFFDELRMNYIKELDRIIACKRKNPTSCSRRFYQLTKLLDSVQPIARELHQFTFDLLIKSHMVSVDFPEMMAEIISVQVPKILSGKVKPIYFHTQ

[5] = molecular target: T1, Androgen receptor (Rattus norvegicus); experiment: Displacement of [3H]dihydrotestosterone from androgen receptor in Wistar rat ventral prostate at 100 ug/mL by liquid scintillation counting; assay type: tissue-based
[6] = molecular target: T1, Androgen receptor (Rattus norvegicus); experiment: Displacement of [3H]dihydrotestosterone from androgen receptor in Wistar rat ventral prostate at 200 ug/mL by liquid scintillation counting

Row | SMILES | Activity (Rattus norvegicus [1]) | inhibition (Rattus norvegicus [1]) [%] | inhibition (Rattus norvegicus [2]) [%] | inhibition (Rattus norvegicus [3]) [%] | inhibition [4] [%] | inhibition [5] [%] | inhibition [6] [%]
1 | CC[C@H]1C[C@H]2[C@@H]3CCC4=CC(=O)CC[C@@H]4[C@H]3CC[C@]2(C)[C@H]1O | Active |  |  |  |  |  | 
2 | COc1cc(O)ccc1[C@H]1Oc2cc3oc(=O)ccc3cc2[C@@H]2C=C(C)C[C@@H](c3ccc(O)c(O)c3)[C@H]12 |  | 0.3 | 4.8 | 5.2 |  |  | 
3 | COc1cc(O)ccc1[C@H]1Oc2cc3oc(=O)ccc3cc2[C@@H]2C=C(C)C[C@@H](c3ccc(O)cc3OC)[C@H]12 |  | 8.6 | 49.9 | 72.3 | 60.3 | 70.9 | 62
4 | COc1cc(O)ccc1[C@@H]1CC(C)=C[C@H]2c3cc4ccc(=O)oc4cc3O[C@H](c3ccc(O)c(O)c3)[C@H]21 |  | 0.2 | 8.4 | 19.8 |  | -8.6 | 
5 | COc1cc(O)ccc1[C@@H]1CC(C)=C[C@H]2c3cc4ccc(=O)oc4cc3O[C@H](c3ccc(O)cc3)[C@H]21 |  | 3.4 | 44.1 | 69.2 | 56.5 | 57.5 | 61.5
6 | COc1cc(O)ccc1[C@H]1Oc2cc3oc(=O)ccc3cc2[C@@H]2C=C(C)C[C@@H](c3ccc(O)cc3)[C@H]12 |  | 5.4 | 28.8 | 59.2 | 62.5 | 73.3 | 78.6
